Laboratory results published in patent US9359338B2, “Cyclopropanecarboxamido-substitute aromatic compounds as anti-tumor agents” (Crown Bioscience Inc. (Taiwan), priority 2012, dated 2016).
pIC50: −log10 of the molar value. Where two headings read alike, the source gives them in different places.

Assays:
KDR kinase (790-1356 AA) = KDR kinase (790-1356 AA) (Homo sapiens (Human), UniProt P35968); assay: Inhibitory activity at KDR kinase (Lance Ultra Ulight-TK assay); assay type: biochemical
Summary of the method: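 Kinase (20 nM final) and compound were premixed 20 min at 30 °C, then phosphorylation ran 2 h at 30 °C with ATP at 90 μM and Ulight-TK substrate at 50 μM, pH 7.5, Mg2+ and Mn2+ present.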

B-Raf kinase = B-Raf kinase (Homo sapiens (Human), UniProt P15056); assay: Inhibitory activity at B-Raf kinase (ADP-GLO assay); assay type: biochemical
Procedure: Inhibitory Activity of Compounds at B-Raf Kinase
• [Experimental method]: Use ADP-GLO™ assay kit from Promega to evaluate the inhibitory activity of compounds at B-Raf • [Instrument]: PerKinElmer's ENVISION plate reader • [Material]: Optiplate-384 well plate (PerKinElmer), kinase buffer (50 mM Hepes pH7.5, 1 mM EGTA, 2 mM DTT, 10 mM Mg^2+, 0.05% BSA), B-Raf kinase (Millipore, catalogue #14-530-K), GST-MEK1 substrate (Carna, catalogue #07-141-10), Super pure ATP (Promega), ADP-GLO™ assay kit (Promega, catalogue # V9102), DMSO (Sigma, catalogue #34869), purified water (Millipore, type: Milli-Q). • [Study conditions]: Mix B-Raf kinase (final concentration: 5 nM) and compound (DMSO final concentration: 0.25%) and preincubate at 30° C. for 20 min, then add ATP (final concentration: 6 μM) and reaction substrate (final concentration: 30 nM), React for 2 hrs at 30° C. After reaction, add ADP-GLO™ reagent, react for 40 min at room temperature, then add ADP-GLO™ detecting agent, react for 30 min at room temperature. After that, use ENVSION to measure the […]. • [Samples]: Compounds in the examples and Sorafenib (positive control) • [Data analysis]: Use CBIS data analysis software to calculate IC50 values

pERK in MDA-MB-231 cells = assay: Inhibitory activity at pERK (In Cell Western, MDA-MB-231 cells); assay type: cell-based; details: Homo sapiens
Summary of the method: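 pERK was measured by in-cell immunofluorescence (PI nuclear counterstain, Acumen read-out) in fixed MDA-MB-231 cells. Compound exposure lasted 2 h in DMEM with 0.1% BSA, using eight 3-fold dilutions starting at 30 μM final and 0.3% DMSO. IC50 values were derived from the resulting curves.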

PLC-PRF-5 cells = assay: Inhibition of proliferation of PLC-PRF-5 cells (ATPlite); assay type: cell-based; details: Homo sapiens
Summary of the method: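 Antiproliferative IC50 from luminescent ATP detection (ATPlite) after 96 h compound exposure at 37 °C. Cells grown in DMEM plus 10% FBS and allowed 2 h to settle, then dosed with eight 3-fold dilutions topping at 30 μM final, DMSO 0.3%.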

[1] = MDA-MB-231, MDA-MB-231 cells, read-out: MDA-MB-231 pERK IC50
[2] = PLC-PRF-5, PLC-PRF-5 cells, read-out: PLC-PRF-5 cell proliferation IC50
[3] = MDA-MB-231, read-out: MDA-MB-231 pERK IC50
[4] = PLC-PRF-5, read-out: PLC-PRF-5 cell proliferation IC50

Sequence of KDR kinase (790-1356 AA) (P35968 790-1356): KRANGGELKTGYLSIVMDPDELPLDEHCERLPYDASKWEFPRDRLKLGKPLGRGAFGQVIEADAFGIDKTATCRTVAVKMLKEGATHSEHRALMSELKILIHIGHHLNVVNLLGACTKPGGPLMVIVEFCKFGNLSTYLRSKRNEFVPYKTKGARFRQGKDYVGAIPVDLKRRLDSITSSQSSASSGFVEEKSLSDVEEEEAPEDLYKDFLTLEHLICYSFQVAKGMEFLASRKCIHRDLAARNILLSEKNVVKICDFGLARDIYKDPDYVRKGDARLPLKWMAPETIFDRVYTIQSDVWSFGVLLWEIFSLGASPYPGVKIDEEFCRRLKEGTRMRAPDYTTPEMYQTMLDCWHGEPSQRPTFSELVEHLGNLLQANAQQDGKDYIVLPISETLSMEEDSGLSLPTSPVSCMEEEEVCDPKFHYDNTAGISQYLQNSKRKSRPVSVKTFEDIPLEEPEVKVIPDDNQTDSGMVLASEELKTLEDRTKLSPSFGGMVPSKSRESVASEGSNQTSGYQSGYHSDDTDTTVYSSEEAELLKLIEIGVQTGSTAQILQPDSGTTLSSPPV
Sequence of B-Raf kinase (P15056 416-766): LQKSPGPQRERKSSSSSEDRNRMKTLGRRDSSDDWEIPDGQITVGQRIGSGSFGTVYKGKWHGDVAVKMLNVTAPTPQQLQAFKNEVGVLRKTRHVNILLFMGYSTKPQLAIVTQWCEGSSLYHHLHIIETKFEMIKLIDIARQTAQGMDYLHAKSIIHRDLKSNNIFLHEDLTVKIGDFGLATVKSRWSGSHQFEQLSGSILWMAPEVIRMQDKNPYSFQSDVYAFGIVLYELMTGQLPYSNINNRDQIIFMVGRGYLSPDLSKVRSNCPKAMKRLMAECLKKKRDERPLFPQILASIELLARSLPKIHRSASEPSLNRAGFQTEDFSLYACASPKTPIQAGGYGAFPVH

Compound	pIC50 (KDR kinase (790-1356 AA))	pIC50 (B-Raf kinase)	pIC50 (pERK in MDA-MB-231 cells; [1])	pIC50 (PLC-PRF-5 cells; [2])	pIC50 (pERK in MDA-MB-231 cells; [3])	pIC50 (PLC-PRF-5 cells; [4])
Cc1ccc(Oc2ccnc(NC(=O)C3CC3)c2)cc1NC(=O)Nc1ccc(Cl)c(C(F)(F)F)c1 [Exe. 030]	7.91	7.74	7.63	5.55		
CS(=O)(=O)c1cc(NC(=O)Nc2ccc(Oc3ccnc(NC(=O)C4CC4)c3)c(F)c2)cc(C(F)(F)F)c1 [Exe. 037]	7.87	7.59	7.47	6.11		
CN1CCC(Oc2cc(NC(=O)Nc3ccc(Oc4ccnc(NC(=O)C5CC5)c4)c(F)c3)cc(C(F)(F)F)c2)C1 (centres unmarked) [Exe. 038]	8.09	8.28	7.63	6.89		
CC(=O)Nc1cc(NC(=O)Nc2ccc(Oc3ccnc(NC(=O)C4CC4)c3)c(F)c2)cc(C(F)(F)F)c1 [Exe. 044]	7.85	7.89	7.53	6.12		
CC1CN(c2cc(NC(=O)Nc3ccc(Oc4ccnc(NC(=O)C5CC5)c4)c(F)c3)cc(C(F)(F)F)c2)CC(C)O1 (centres unmarked) [Exe. 047]	8.21	7.13	7.27	6.17		
CN(C)C1CCN(c2cc(NC(=O)Nc3ccc(Oc4ccnc(NC(=O)C5CC5)c4)c(F)c3)cc(C(F)(F)F)c2)C1 (centres unmarked) [Exe. 048]	8.14	7.96	7.60	6.63		
O=C(Nc1cc(N2CCCC2=O)cc(C(F)(F)F)c1)Nc1ccc(Oc2ccnc(NC(=O)C3CC3)c2)c(F)c1 [Exe. 052]	7.81	7.89	7.66	6.44		
O=C(Nc1ccc(Oc2ccnc(NC(=O)C3CC3)c2)c(F)c1)Nc1cc(C2CC2)ccc1F [Exe. 058]	7.86	6.94	7.52	7.37		
O=C(Nc1ccc(Oc2ccnc(NC(=O)C3CC3)c2)c(F)c1)Nc1ccc2[nH]cc(F)c2c1 [Exe. 059]	8.09	7.05	7.71	6.19		
O=C(Nc1cccc(C(F)(F)F)c1)Nc1ccc(Oc2ccnc(NC(=O)C3CC3)c2)c(F)c1 [Exe. 061]	8.43	8.20	7.58	6.68		
N#Cc1ccc(NC(=O)Nc2ccc(Oc3ccnc(NC(=O)C4CC4)c3)c(F)c2)cc1C(F)(F)F [Exe. 062]	8.14	8.15			7.53	5.52
CC(F)(F)c1cncc(NC(=O)Nc2ccc(Oc3ccnc(NC(=O)C4CC4)c3)cc2)c1 [Exe. 065]	8.19	7.60	7.33	6.79		
Cc1cc(Oc2cc(NC(=O)C3CC3)ncn2)ccc1NC(=O)Nc1ccc(F)c(C(F)(F)F)c1 [Exe. 070, N-[6-[4-[[4-fluoro-3-(trifluoromethyl)phenyl]carbamoylamino]-3-methyl-phenoxy]pyrimidin-4-yl]cyclopropanecarboxamide]	7.96	6.84	7.20	5.03		
Cc1cc(Oc2cc(NC(=O)C3CC3)ncn2)ccc1NC(=O)Nc1cccc(C(F)(F)F)c1 [Exe. 074]	7.98	6.84	7.11	5.22		
O=C(Nc1ccc(Oc2cc(NC(=O)C3CC3)ncn2)cc1F)Nc1cc(C(F)(F)F)ccc1F [Exe. 107]	7.87	7.51	7.69	6.49		
O=C(Nc1cccc(C(F)(F)F)c1)Nc1ccc(Oc2cc(NC(=O)C3CC3)ncn2)cc1F [Exe. 108]	8.07	7.39	7.70	5.79		
CC(F)(F)c1ccc(F)c(NC(=O)Nc2ccc(Oc3cc(NC(=O)C4CC4)ncn3)cc2F)c1 [Exe. 109]	7.96	7.49	8.01	6.56		
CC(F)(F)c1cc(NC(=O)Nc2ccc(Oc3cc(NC(=O)C4CC4)ncn3)cc2F)ccc1Cl [Exe. 110]	8.14	7.62	7.87	5.80		
Cc1cc(NC(=O)Nc2cc(C(C)(F)F)ccc2F)ccc1Oc1cc(NC(=O)C2CC2)ncn1 [Exe. 116]	8.10	6.95	7.52	6.90		
Cc1cc(NC(=O)Nc2ccc(F)c(C(C)(F)F)c2)ccc1Oc1cc(NC(=O)C2CC2)ncn1 [Exe. 118]	8.13	6.53	7.26	6.15		
COc1ccc(NC(=O)Nc2cnc(Oc3ccnc(NC(=O)C4CC4)c3)c(C)c2)cc1C(F)(F)F [Exe. 125]	8.06	8.07	8.33	5.76		
Cc1cc(NC(=O)Nc2cc(OC(C)C)cc(C(F)(F)F)c2)cnc1Oc1ccnc(NC(=O)C2CC2)c1 [Exe. 126]	7.52	7.21	7.61	5.61		
Cc1cc(Oc2ccnc(NC(=O)C3CC3)c2)ncc1NC(=O)Nc1cc(C(C)(F)F)ccc1F [Exe. 128]	8.01	8.21	7.42	6.09		
CS(=O)(=O)c1cc(NC(=O)Nc2ccc(Oc3ccnc(NC(=O)C4CC4)c3)nc2)cc(C(F)(F)F)c1 [Exe. 130]	8.34	7.53	6.14	5.30		
O=C(Nc1ccc(Oc2ccnc(NC(=O)C3CC3)c2)nc1)Nc1cc(N2CCS(=O)(=O)CC2)cc(C(F)(F)F)c1 [Exe. 132]	8.00	7.41	6.47	5.23		
N#Cc1ccc(NC(=O)Nc2ccc(Oc3ccnc(NC(=O)C4CC4)c3)cn2)cc1C(F)(F)F [Exe. 133]	8.04	7.60			7.63	5.99

Now from value to compound, other results behind:

pIC50 (KDR kinase (790-1356 AA))	pIC50 (B-Raf kinase)	pIC50 (pERK in MDA-MB-231 cells; [1])	Compound	pIC50 (PLC-PRF-5 cells; [2])	pIC50 (pERK in MDA-MB-231 cells; [3])	pIC50 (PLC-PRF-5 cells; [4])
7.84	7.60	7.47	Cc1cc(NC(=O)Nc2ccc(Cl)c(C(F)(F)F)c2)ccc1Oc1ccnc(NC(=O)C2CC2)c1 [Exe. 031]	5.89		
7.99	8.03	8.33	O=C(Nc1cccc(OC(F)(F)F)c1)Nc1ccc(Oc2ccnc(NC(=O)C3CC3)c2)cc1F [Exe. 034]	6.66		
8.11	8.05	8.03	CC(F)(F)c1cc(F)cc(NC(=O)Nc2ccc(Oc3ccnc(NC(=O)C4CC4)c3)cc2F)c1 [Exe. 035]	6.59		
8.38	7.43	7.74	CC1CN(c2cc(NC(=O)Nc3ccc(Oc4ccnc(NC(=O)C5CC5)c4)c(F)c3)cc(C(F)(F)F)c2)C(=O)O1 (centres unmarked) [Exe. 041]	6.45		
8.28	7.63	7.47	O=C(Nc1cc(N2CCC(O)CC2)cc(C(F)(F)F)c1)Nc1ccc(Oc2ccnc(NC(=O)C3CC3)c2)c(F)c1 [Exe. 051]	6.13		
7.76	7.19	7.40	CC(F)(F)c1cncc(NC(=O)Nc2ccc(Oc3ccnc(NC(=O)C4CC4)c3)c(F)c2)c1 [Exe. 056]	6.96		
8.26	7.83	7.54	O=C(Nc1ccc(Oc2ccnc(NC(=O)C3CC3)c2)c(F)c1)Nc1ccc(Cl)c(OC(F)(F)F)c1 [Exe. 063]	5.63		
7.97	7.35	7.71	Cc1cc(Oc2cc(NC(=O)C3CC3)ncn2)ccc1NC(=O)Nc1ccc(Cl)c(C(C)(F)F)c1 [Exe. 085]	4.96		
7.95	6.82	7.07	CC(F)(F)c1cc(NC(=O)Nc2ccc(Oc3cc(NC(=O)C4CC4)ncn3)c(F)c2)ccc1Cl [Exe. 105]	5.72		
7.86	7.98	7.71	Cc1cc(NC(=O)Nc2cc(C(F)(F)F)ccc2F)cnc1Oc1ccnc(NC(=O)C2CC2)c1 [Exe. 124]	6.80		
7.93	8.14	7.94	Cc1cc(Oc2ccnc(NC(=O)C3CC3)c2)ncc1NC(=O)Nc1cc(C(F)(F)F)ccc1F [Exe. 127]	6.19		
8.21	7.90	< 6.00	CN1CCC(Nc2cc(NC(=O)Nc3ccc(Oc4ccnc(NC(=O)C5CC5)c4)nc3)cc(C(F)(F)F)c2)CC1 [Exe. 131]	4.98		
